Test results reported in article PMC9645390, “Amphiphilic stilbene derivatives attenuate the neurotoxicity of soluble Aβ42 oligomers by controlling their interactions with cell membranes” (Chemical Science, 2022).

Test system: Aβ oligomers–SH-SY5Y cell membrane interactions
Assay: Confocal imaging of Aβ oligomers binding to SH-SY5Y cell membranes
Assay type: cell-based, human
Conditions: 5 μM Aβ oligomers + 5 μM compound, 24 h; for Aβ oligomers bound to cell membranes (in words): CF594-HJ 3.4 staining
Description: Encouraged by the ability of the developed amphiphilic compounds to attenuate the neurotoxicity of Cu–Aβ species, we sought out to study the possible molecular mechanisms for this beneficial effect. The Aβ oligomers were reported to interact with cell membranes in various ways, such as binding to receptors on cell membranes,[49,50] inserting into membranes,[51] or even showing cellular uptake via endocytosis.[52] The abnormal interactions between Aβ oligomers and neuron cells, which could disrupt the neuronal ion homeostasis and neuron cell membrane integrity, might be why Aβ oligomers are highly neurotoxic.[53–55] Moreover, molecules that can disrupt interactions between oligomers and cell membranes are promising candidates for drug development.[56,57] Thus, we proceeded to probe the interactions of the Aβ42 oligomers with SH-SY5Y cellular membranes, in the absence and presence of the compounds, via confocal microscopy. […] Moreover, a lower concentration of Aβ42 (5 μM) or Aβ42–Cu (5 μM) were chosen to avoid significant cell death (Fig. S9b ^†). Before investigating the neuroprotective effect of our compounds, we have also confirmed that Aβ aggregates interact tightly with the cell membranes, as shown via co-staining with a membrane specific dye (Fig. S10 ^†). […]
Fig. 10 (a) SH-SY5Y cells were treated with 5 μM Aβ oligomers in the presence or absence of 5 μM ZY-15-MT or 5 μM ZY-15-OMe for 24 h before imaging. Red and blue fluorescence indicate the Aβ oligomers and nuclei, respectively. […] (b) Three independent experiments were subjected for the statistical analysis and analyzed by one-way ANOVA (*P < 0.05, ***P < 0.001).
RCSB database and optimized by minimal minimization with the OPLS3 force field using the Protein Preparation Wizard program. […] The calculated poses were ranked by both the docking score and Glide e-model energy, and the structures with the best docking scores and Glide e-model energies were rendered in […]

Structure (SMILES) | Aβ oligomers bound to cell membranes (in words) | decrease of the numbers of Aβ oligomers binding to the cell membranes
COc1cc(/C=C/c2ccc(-c3ccc(C=O)cc3)s2)cc(CN2CCN(C)CCN(C)CC2)c1O [ZY-15-OMe] | fewer numbers of Aβ oligomers bound to the cell membranes | 
CN1CCN(C)CCN(Cc2cc(/C=C/c3ccc(-c4ccc(C=O)cc4)s3)ccc2O)CC1 [ZY-15-MT] | fewer numbers of Aβ oligomers bound to the cell membranes | about 50%
